Assay results taken from the CheMixHub viscosity set.

Assay: xn = mol fraction of the nth substance listed

CCCCCCCCCCCC + c1ccccc1
Settings | viscosity [mPa·s]
295.15 K, 100 kPa, x2 = 0.3903 | 1.047
298 K, 101 kPa, x2 = 0.5 | 0.9053
298.15 K, 101.33 kPa, x1 = 0.04733 | 0.6259
298.15 K, 101.33 kPa, x1 = 0.1084 | 0.6476
298.15 K, 101.33 kPa, x1 = 0.2036 | 0.6913
298.15 K, 101.33 kPa, x1 = 0.2978 | 0.7491
298.15 K, 101.33 kPa, x1 = 0.4139 | 0.8308
298.15 K, 101.33 kPa, x1 = 0.5192 | 0.9153
298.15 K, 101.33 kPa, x1 = 0.6155 | 0.9976
298.15 K, 101.33 kPa, x1 = 0.7291 | 1.102
298.15 K, 101.33 kPa, x1 = 0.8011 | 1.168
298.15 K, 101.33 kPa, x1 = 0.9231 | 1.291
298.38 K, 101.3 kPa, x1 = 0.5002 | 0.8885
298.52 K, 101.3 kPa, x1 = 0.2502 | 0.7103
298.76 K, 101.3 kPa, x1 = 0.7496 | 1.097
298.77 K, 101.3 kPa, x1 = 0.7496 | 1.096
298.79 K, 101.3 kPa, x1 = 0.7496 | 1.095
299.49 K, 101.3 kPa, x1 = 0.5002 | 0.8746
308.08 K, 101.3 kPa, x1 = 0.5002 | 0.775
308.51 K, 101.3 kPa, x1 = 0.2502 | 0.6242
308.9 K, 101.3 kPa, x1 = 0.7496 | 0.9482
318 K, 101 kPa, x2 = 0.5 | 0.6904
322.92 K, 101.3 kPa, x1 = 0.5002 | 0.6451
322.94 K, 101.3 kPa, x1 = 0.2502 | 0.5262

CCCCCCCCCCO + CS(C)=O
313 K, 101 kPa
Settings | viscosity [mPa·s]
x2 = 0.0732 | 5.748
x2 = 0.2168 | 4.662
x2 = 0.3082 | 4.127
x2 = 0.3986 | 3.711
x2 = 0.5096 | 3.248
x2 = 0.5918 | 2.964
x2 = 0.6951 | 2.596
x2 = 0.8064 | 2.203
x2 = 0.9009 | 1.838

Cc1ccc(N)cc1 + O=[N+]([O-])c1ccccc1O
323.1 K, 101 kPa
Settings | viscosity [mPa·s]
x2 = 0.296 | 1.835
x2 = 0.75 | 2.15

Cc1ccccc1C + C1CCCCC1
viscosity [mPa·s], 101 kPa
Settings | x1 = 0.0998 | x1 = 0.2001 | x1 = 0.3 | x1 = 0.4 | x1 = 0.5 | x1 = 0.6 | x1 = 0.7001 | x1 = 0.7999 | x1 = 0.9
303.15 K | 0.7647 | 0.7241 | 0.6977 | 0.6817 | 0.6728 | 0.6706 | 0.6735 | 0.681 | 0.6924
308.15 K | 0.7083 | 0.6736 | 0.6511 | 0.6372 | 0.6306 | 0.6289 | 0.6317 | 0.639 | 0.65
313.15 K | 0.6583 | 0.6281 | 0.6097 | 0.5979 | 0.592 | 0.5919 | 0.5946 | 0.6015 | 0.6118
318.15 K | 0.6129 | 0.5876 | 0.572 | 0.5615 | 0.5568 | 0.5562 | 0.5614 | 0.5679 | 0.5772
323.15 K | 0.5722 | 0.5508 | 0.5372 | 0.5284 | 0.5247 | 0.5248 | 0.5293 | 0.5365 | 0.5452

COCCOCCO + CCOC(=O)OCC
298.15 K, 101.33 kPa
Settings | viscosity [mPa·s]
x1 = 0.0177 | 0.765
x1 = 0.0409 | 0.784
x1 = 0.0525 | 0.794
x1 = 0.0688 | 0.809
x1 = 0.0808 | 0.819
x1 = 0.0974 | 0.834
x1 = 0.1182 | 0.856
x1 = 0.1376 | 0.878
x1 = 0.1665 | 0.911
x1 = 0.1973 | 0.949
x1 = 0.2247 | 0.98
x1 = 0.26 | 0.984
x1 = 0.3011 | 1.095
x1 = 0.3362 | 1.148
x1 = 0.4104 | 1.282
x1 = 0.438 | 1.337
x1 = 0.4644 | 1.394
x1 = 0.4835 | 1.436
x1 = 0.5151 | 1.511
x1 = 0.5529 | 1.61
x1 = 0.5929 | 1.721
x1 = 0.6445 | 1.874
x1 = 0.6774 | 1.978
x1 = 0.7326 | 2.167
x1 = 0.7642 | 2.295
x1 = 0.8034 | 2.456
x1 = 0.8312 | 2.576
x1 = 0.861 | 2.709
x1 = 0.8942 | 2.87
x1 = 0.9328 | 3.065
x1 = 0.9487 | 3.15
x1 = 0.9554 | 3.189
x1 = 0.9613 | 3.221
